Measurements published in PMC8387461, “T cell receptor recognition of hybrid insulin peptides bound to HLA-DQ8” (Nature Communications, 2021).

Key:
CD4+ T cell clone A1.9 = test: T cell stimulation assay, IFNγ ELISA, clone A1.9; assay type: cell-based, human; details: primary clone A1.9, APC EBV-KJ, 24 h, 31-mer C-peptide versus 15mer HIP titration
Procedure: Fig. 2 Comparison of the stimulatory capacity of full-length proinsulin C-peptide and HIP on T1D CD4 + T cell clones. […] Titration of full-length 31-mer C-peptide ([…], (open circles) and 15mer C-peptide-IAPP2 HIP ([…] (filled circles). Antigen presenting cells (APC) were the EBV line, EBV-KJ, (2 × 10^4 cells/well). APC were cultured for 24 h with the same number (2 × 10^4 cells/well) of the primary CD4 + T-cell clone and the peptide concentration indicated. T-cell response to peptide were indicated by secretion of IFNγ which was measured in triplicate by ELISA and reported as pg/ml. Mean and standard deviations of triplicate IFNγ measurements are shown. Results are representative of two experiments for each clone.
For primary T1D CD4+ T cell clones, cells were thawed and used directly in functional assays. For T cell stimulation assays, cloned CD4+ T cells were incubated with BLCL KJ (; HLA-DQ8 + : HLA-DQA1*03:01, HLA-DQB1*03:02), as APCs, together with synthetic peptides. For the alanine scan experiments, each peptide was added to a final concentration of 10 μM. T cell response to antigen was measured as interferon gamma (IFNγ) secretion into the culture media. The IFNγ concentration in the culture media was determined by ELISA (Biolegend).
Supplementary Figure 8. […]
type) at each position P-3 to P12 are shown. IFNγ was measured in triplicate by ELISA, concentrations are shown in pg/ml. […]

HLA-DQ8 [1] = test: Size exclusion chromatography, aggregate versus monomer of HLA-DQ8-peptide; assay type: physicochemical, human; details: SEC, data not shown
Excerpt: The proinsulin C-peptide epitope (PI40-54 […]; predicted binding register in bold) lacks both a preferred acidic residue at P9 and aliphatic residue at P4, whereas HIP ([…]) lacks the preferred P4 residue. […] To overcome this, as undertaken previously with a modified B:11-23 peptide and HLA-DQ8[22], we engineered a construct with a disulfide bond between p11 of the HIP peptide or proinsulin C-peptide and HLA-DQ8α I72C to produce HLA-DQ8αΙ72C-CpepL11C (HLA-DQ8-CpepL11C; […]; predicted binding register in bold, P11Cys in italics) and HLA-DQ8αΙ72C-HIPL11C (HLA-DQ8-HIPL11C; […]; predicted binding register in bold, proinsulin C-peptide derived underlined, IAPP2 derived bold italics and P11Cys italics).

T cells = details: HIP from MHC-II peptidome of pancreatic islets and lymph nodes of NOD mice; cited from earlier work
T1D3 T cell clone = details: cited from earlier work
Excerpt: (§1) Yang et al.[39] described a TRBV5-1^+ HLA-DQ8 restricted T cell clone isolated by insulin B:9-23 peptide (B:9-23 […]) tetramer staining. […] The set of mutations comprised P1AtoE, P6CtoA and P9RtoE and P11FtoC ([…]; mutated residues in italics, P1-P9 register in bold)[22],[24],[39]. This engineered epitope was used as a model put forw ...

HLA-DQ8 [2] = details: cited from earlier work
Excerpt: as §1

Substance: EAEDLQVGQVELGGGPGAGSLQPLALEGSLQ [proinsulin C-peptide, full-length 31-mer proinsulin C-peptide, reference compound]
- response of clone to HIP versus proinsulin C-peptide (CD4+ T cell clone A1.9): responds equally to proinsulin C-peptide or HIP

Substance: GQVELGGGPGAGSLQ [PI40-54, reference compound]
- stability of HLA-DQ8 complex (ratio of aggregate versus monomer) (HLA-DQ8 [1]): unstable HLA-DQ8 binary complexes

Substance: LQTLAL–NAARD [proinsulin C-peptide-IAPP2 HIP from NOD mice]
- T cell autoreactivity (T cells): had T cell autoreactivity

Substance: LVEELYLVAGEEGC [engineered insulin B:9-23 peptide]
- reactivity of / recognition by TRBV5-1+ T1D3 (T1D3 T cell clone): recognised by the TRBV5-1^+ T1D3 TCR

Substance: SHLVEALYLVCGERG [B:9-23]
- reactivity of / recognition by TRBV5-1+ T1D3 (T1D3 T cell clone): low reactivity
- affinity for HLA-DQ8 (HLA-DQ8 [2]): poor affinity
